# Results: patent US20090036424A1, “ASSOCIATION BETWEEN HLA-DRBI*07 ALLELE AND SUSCEPTIBILY TO INCREASED LEVELS OF ALAT FOLLOWING XIMELAGATRAN ADMINISTRATION” (AstraZeneca AB, priority 2005, published 2009)
# Tested on: alanine aminotransferase (ALAT)
# Test: ALAT elevation during longer-term ximelagatran treatment in clinical trials
# Format: in vivo, human
# Source text: Phase III clinical trials have been performed using fixed doses of melagatran and ximelagatran for the prevention of VTE in hip or knee replacement surgery. In addition, clinical trials have been performed using ximelagatran for the treatment and long-term secondary prevention of VTE, and for the prevention of stroke in patients with non-valvular atrial fibrillation. Ximelagatran has also been tested for secondary thrombosis prophylaxis post-myocardial infarction/acute coronary syndrome (ACS).
# Alanine aminotransferase (ALAT) is an enzyme mostly expressed in the liver (EC 2.6.1.2). It is also called serum glutamate pyruvate transaminase (SGPT) or alanine transaminase (ALT). This enzyme is released into the plasma by liver cell death, which is a normal event. However, when liver cell death increases, ALAT levels rise above the normal range. The spill-over of this enzyme into blood is routinely measured as a marker of abnormal liver-cell damage. For example, alcoholic or viral hepatitis will increase ALAT levels, as will severe congestive heart failure. An elevated ALAT in the presence of normal levels of plasma alkaline phosphatase helps distinguish liver disease caused by liver-cell damage from diseases caused by problems in biliary ducts.
# Elevations of ALAT are normally measured in multiples of the upper limit of normal (ULN), with a reference range of 15-45 U/L in most laboratories. In 1987, in a study of 19,877 healthy Air Force recruits, only 99 (0.5%) had confirmed ALAT elevations (as reviewed in Green & Flamm (2002) Gastroenterology 123:1367-1384).
# The increase in ALAT values with ximelagatran usually occurred within the first 6 months of treatment and were mainly asymptomatic. […] Subject to the future regulatory approval of ximelagatran, regular liver function testing (LFT) using an appropriate algorithm may be required if ximelagatran is used for treatment periods exceeding a month. Studies are currently ongoing to try and establish the mechanism of the ALAT elevations, and their hepatic and overall clinical significance.
compound,measurement,setting,value
"CCOC(=O)CN[C@@H](C(=O)N1CC[C@H]1C(=O)NCc1ccc(/C(N)=N\O)cc1)C1CCCCC1 [ximelagatran, EtOOC—CH2—(R)Cgl-Aze-Pab-OH]",patients exhibiting levels of alanine aminotransferase (ALAT) 3-fold or more above the upper limit of normal (≧3×ULN),"longer-term treatment (>35 days), 1.2% in the comparator groups",7.9%
same,reversibility of ALAT increases,regardless of whether treatment was continued or discontinued,reversible in most patients
same,time of occurrence of the increase in ALAT values,"usually, from start of treatment, mainly asymptomatic",≤ 6 months
